Assay results: publication PMC3365486 (Behavioural Pharmacology, 2012)
Several values for one entry are separate records, joined by “and”; a condition that tells them apart may be missing. Identical values can stand only once. Counter-ions that a name gives are not always drawn. Marks after values point to notes of the source that are not given here.

Key:
D3 or D2 receptor = details: ref Collins et al., 2007; cited from earlier work
D3 receptor = details: ref Millan et al., 2002; cited from earlier work
[1] = test system: rats trained to self-administer cocaine; assay: Progressive ratio; assay type: in vivo, rat; details: for Final Ratio Achieved / Total Injections / Total Responses: maximally effective dose (cocaine 1.0, 7-OH-DPAT 0.32, PF-592,379 0.1 mg/kg/inf), mean (SEM); for PR responding when substituted for cocaine, relative to saline: cocaine 0.032–1.0, 7-OH-DPAT and PF-592,379 0.1–1.0 mg/kg/inj
[2] = test system: rats trained to self-administer cocaine; assay: Fixed ratio; assay type: in vivo, rat; details: for FR5 responding when substituted for cocaine, relative to saline: cocaine and 7-OH-DPAT 0.032–1.0, PF-592,379 0.01–1.0 mg/kg/inj i.v., n=6
drug-naïve rats = assay: Acquisition of IV self-administration under FR1 in drug-naïve rats; assay type: in vivo, rat; details: for % Met, Both Criteria Met / % Met, criterion ≥ 15 Injections per Session / % Met, criterion ≥ 70% Active Lever Selection: FR1, 18 sessions, n=7
[3] = molecular target: T1, recombinant human D3 receptors (Homo sapiens, UniProt P35462); assay: Inhibition of forskolin-stimulated cAMP accumulation in intact CHO cells; assay type: cell-based
T1 sequence (P35462 whole entry): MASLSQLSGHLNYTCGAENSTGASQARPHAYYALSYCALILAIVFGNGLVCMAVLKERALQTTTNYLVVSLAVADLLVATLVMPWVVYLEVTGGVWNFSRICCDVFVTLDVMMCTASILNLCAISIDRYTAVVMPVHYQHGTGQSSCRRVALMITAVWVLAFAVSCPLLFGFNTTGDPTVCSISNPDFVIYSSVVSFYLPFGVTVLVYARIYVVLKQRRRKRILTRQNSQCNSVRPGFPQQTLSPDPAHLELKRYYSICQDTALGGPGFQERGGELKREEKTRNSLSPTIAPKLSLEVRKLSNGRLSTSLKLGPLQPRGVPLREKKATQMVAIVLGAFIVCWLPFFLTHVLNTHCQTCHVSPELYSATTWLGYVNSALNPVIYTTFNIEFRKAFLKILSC

rats = assay: Locomotor activity observed at large doses; assay type: in vivo, rat; details: PF-592,379 doses as large as 32.0 mg/kg
[4] = test system: rats trained to discriminate 5.6 mg/kg cocaine from saline; details: rat, in vivo; for maximum cocaine-appropriate responding: sc
[5] = molecular target: recombinant human D1 receptors (Homo sapiens, UniProt P21728); assay: In vitro competition binding, [3H]SCH23390, CHO cell membranes
Sequence of recombinant human D1 receptors (P21728 whole entry): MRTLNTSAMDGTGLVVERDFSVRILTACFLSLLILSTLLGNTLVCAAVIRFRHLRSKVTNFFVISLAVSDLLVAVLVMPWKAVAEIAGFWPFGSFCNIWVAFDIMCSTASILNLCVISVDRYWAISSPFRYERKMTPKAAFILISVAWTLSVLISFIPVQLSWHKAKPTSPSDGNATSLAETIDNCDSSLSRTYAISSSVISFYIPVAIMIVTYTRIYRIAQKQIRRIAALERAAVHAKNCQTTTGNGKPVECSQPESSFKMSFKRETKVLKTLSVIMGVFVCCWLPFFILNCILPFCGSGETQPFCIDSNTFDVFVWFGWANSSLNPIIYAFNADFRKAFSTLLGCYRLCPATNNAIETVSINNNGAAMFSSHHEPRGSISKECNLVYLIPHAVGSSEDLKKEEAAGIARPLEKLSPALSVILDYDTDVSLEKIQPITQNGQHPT

[6] = molecular target: T1, recombinant human D3 receptors; details: cAMP accumulation; ref Attkins et al., 2010; cited from earlier work
[7] = molecular target: T1, recombinant human D3 receptors; assay: In vitro competition binding, [3H]spiperone, CHO cell membranes; details: no binding up to 10 µM
[8] = molecular target: recombinant human D5 receptors (Homo sapiens, UniProt P21918); assay: In vitro competition binding, [3H]SCH23390, CHO cell membranes
Sequence of recombinant human D5 receptors (P21918 whole entry): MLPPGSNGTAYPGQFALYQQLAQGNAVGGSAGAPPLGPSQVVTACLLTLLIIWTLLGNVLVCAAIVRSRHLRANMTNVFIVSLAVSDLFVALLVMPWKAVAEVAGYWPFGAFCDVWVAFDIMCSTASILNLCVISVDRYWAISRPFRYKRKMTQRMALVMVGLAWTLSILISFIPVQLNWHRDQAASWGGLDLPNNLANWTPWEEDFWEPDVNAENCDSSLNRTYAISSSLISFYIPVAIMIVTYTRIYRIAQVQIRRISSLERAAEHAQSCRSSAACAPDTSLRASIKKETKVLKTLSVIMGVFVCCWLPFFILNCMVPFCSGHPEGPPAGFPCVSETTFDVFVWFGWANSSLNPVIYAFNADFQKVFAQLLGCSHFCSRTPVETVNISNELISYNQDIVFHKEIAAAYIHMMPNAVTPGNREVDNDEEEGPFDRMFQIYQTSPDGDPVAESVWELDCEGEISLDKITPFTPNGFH

[9] = molecular target: recombinant human D2 receptors (Homo sapiens, UniProt P14416); assay: In vitro competition binding, [3H]U-86170, CHO cell membranes
Sequence of recombinant human D2 receptors (P14416 whole entry): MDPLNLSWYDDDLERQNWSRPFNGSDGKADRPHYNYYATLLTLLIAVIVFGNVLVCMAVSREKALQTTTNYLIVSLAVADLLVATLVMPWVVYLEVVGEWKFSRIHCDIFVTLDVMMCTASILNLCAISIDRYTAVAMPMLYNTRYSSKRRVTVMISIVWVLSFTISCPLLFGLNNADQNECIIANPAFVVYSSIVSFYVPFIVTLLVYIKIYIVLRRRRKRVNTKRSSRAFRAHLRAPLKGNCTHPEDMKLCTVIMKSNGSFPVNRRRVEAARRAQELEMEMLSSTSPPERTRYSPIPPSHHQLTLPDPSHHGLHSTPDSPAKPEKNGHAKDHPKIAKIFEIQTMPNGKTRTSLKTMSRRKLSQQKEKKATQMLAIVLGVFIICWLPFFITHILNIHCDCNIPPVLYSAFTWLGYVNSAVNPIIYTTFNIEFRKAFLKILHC

[10] = molecular target: T2, recombinant human D4 receptors (Homo sapiens, UniProt P21917); assay: In vitro competition binding, [3H]spiperone, CHO cell membranes; details: read-out: in vitro Binding Affinity Ki, hD4, geometric mean (95%CI)
T2 sequence (P21917 1-419): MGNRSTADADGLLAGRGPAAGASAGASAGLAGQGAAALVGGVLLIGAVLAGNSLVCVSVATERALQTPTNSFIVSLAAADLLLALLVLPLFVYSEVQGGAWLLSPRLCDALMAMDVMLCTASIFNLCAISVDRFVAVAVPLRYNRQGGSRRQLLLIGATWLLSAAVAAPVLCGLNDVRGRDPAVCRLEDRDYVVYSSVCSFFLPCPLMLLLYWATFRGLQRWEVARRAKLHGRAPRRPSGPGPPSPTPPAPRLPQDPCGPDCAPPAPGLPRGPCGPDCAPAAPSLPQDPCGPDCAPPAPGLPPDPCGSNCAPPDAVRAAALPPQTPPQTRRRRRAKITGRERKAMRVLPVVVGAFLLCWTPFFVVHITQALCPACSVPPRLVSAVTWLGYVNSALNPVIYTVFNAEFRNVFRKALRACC

[11] = molecular target: T2, recombinant human D4 receptors; assay: Inhibition of forskolin-stimulated cAMP accumulation in intact CHO cells; assay type: cell-based; details: read-out: in vitro Functional Activity EC50, hD4, geometric mean (95%CI)
D2 receptor = details: ref McCall et al., 2005; cited from earlier work
[12] = 0.32 mg/kg per injection IV, FR1

Structure (SMILES)	range of doses over which the D3 or D2 receptor is selectively activated in vivo (D3 or D2 receptor) [fold]	Final Ratio Achieved ([1]; PR)	Total Injections ([1]; PR)	Total Responses ([1]; PR)	PR responding when substituted for cocaine, relative to saline [1]	FR5 responding when substituted for cocaine, relative to saline [2]	Sessions to Criteria (SEM), criterion ≥ 15 Injections per Session (drug-naïve rats; [12])	% Met, Both Criteria Met (drug-naïve rats; 0.32 mg/kg per injection IV) [%]	% Met, criterion ≥ 15 Injections per Session (drug-naïve rats; 0.32 mg/kg per injection IV) [%]	% Met, criterion ≥ 70% Active Lever Selection (drug-naïve rats; 0.32 mg/kg per injection IV) [%]	effect on locomotor activity (rats)	substitution for the discriminative stimulus effects of cocaine [4]	maximum cocaine-appropriate responding [4]	also measured
CCCN[C@H]1CCc2nc(N)sc2C1 [pramipexole]	≤ 30													in vitro radioligand binding selectivity for the D3 over D2 (D3 receptor): ~ 100 fold
COC(=O)[C@H]1[C@@H](OC(=O)c2ccccc2)C[C@@H]2CC[C@H]1N2C [Cocaine, Cocaine HCl]		172.0 (40.4) ^***	31.0 (3.4) ^***	1895.0 (687.3) ^**	monotonic increases in responding	maintained dose-dependent levels of responding	11.8 (2.4) sessions	71	86	71				doses maintaining significantly more PR responding than saline ([1]; PR, i.v.): ≥ 0.1 mg/kg/inj; Sessions to Criteria (SEM), Both Criteria Met (drug-naïve rats; [12]): 11.0 (2.3) sessions; Sessions to Criteria (SEM), criterion ≥ 70% Active Lever Selection (drug-naïve rats; [12]): 10.4 (2.1) sessions
CCCN1C[C@@H](c2ccc(N)nc2)OC[C@@H]1C [PF-592,379, 5-[(2R,5S)-5-methyl-4-propylmorpholin-2-yl]pyridin-2-amine]		8.9 (2.1)	1.3 (0.5)	18.5 (11.7)	Low, saline-like levels of responding	no different than saline	3 (n.a.) sessions	0	14	0	only a mild inhibition of locomotor activity	nearly exclusive responding on the saline-appropriate lever	3.5%	functional selectivity for D3 over D2 receptors [3]: at least 470 fold; responding at the largest doses tested, relative to baseline [4]: ~ 15 % of baseline; IC50 [5]: ≥ 10000 nM; agonist efficacy at the D3 receptor [6]: full agonist; binding selectivity for D3 over D2, D1, and D5 receptors [7]: at least 46 fold; injections per session when substituted for cocaine ([2]; FR5 or PR schedule, doses as large as 1.0 mg/kg): < 5 injections per session; drug earned during the first few acquisition sessions (drug-naïve rats; 0.32 mg/kg/inj, FR1): approximately 3 mg/kg; injections per session by the end of the acquisition period (drug-naïve rats; 0.32 mg/kg/inj, FR1): < 5 injections per session; IC50 [8]: ≥ 10000 nM; IC50 [9]: ≥ 10000 nM
Br.CCCN(CCC)C1CCc2ccc(O)cc2C1 (racemic) [7-OH-DPAT, (±)-7-Hydroxy-2-dipropylaminotetralin HBr]			17.2 (5.4)	690.5 (303.7)			15.5 (1.5) sessions	0	28		stimulated locomotor activity	only partially substituted for cocaine	59% and ~ 60%	Ki [10]: 110 nM; doses maintaining FR5 responding significantly greater than saline ([2]; FR5, i.v.): 0.1 mg/kg/inj; EC50 [11]: 45.2 nM
CN[C@@H]1Cc2cccc3[nH]c(=O)n(c23)C1 [sumanirole]	≤ 30													in vitro radioligand binding selectivity for the D2 over D3 receptor (D2 receptor): ~ 200 fold
